Read-outs that look alike come from different tables or passages of the source.
Key:
A549 NSCLC cells = test: Trypan blue cell count assay, A549; conditions: for EC50: read-out: EC50 (decreased cell number by 50% compared to control), A549, trypan blue
Experimental: A549 NSCLC cells were plated at 1.7×10^4 cells per well in flat bottom 12-well plates. Cells were dosed as described above. At 24, 48 or 72 hours following drug treatment, the media was collected, and the cells were washed with 200 μL PBS. Each well was trypsinized with 200 μL trypsin for 3-5 min. The trypsin reaction was quenched with an equal volume of media. All supernatants and washes were combined and spun at 1,500 rpm for 5 min. Supernatant was decanted, and the cells were resuspended in 200 μL media. The cells were diluted 1:1 in 0.04% trypan blue and counted using a cytometer. The absolute number of cells was determined at each drug concentration. The cell number for each concentration was converted to percent of control for each time point, and plotted using GraphPad Prism 4.0. The EC50 was calculated as the concentration of drug that caused a 50% decrease in number of cells compared to control.
The number of viable cells at each dose was determined at 0, 24, 48 and 72 hours following drug treatment and plotted as a percent of control (FIG. 6A).

HCT-15 = test: NCI-60 DTP Human Tumor Cell Line Screen; assay type: cell-based; conditions: HCT-15, Colon Cancer, 48 h
LOX IMVI = test: NCI-60 DTP Human Tumor Cell Line Screen; assay type: cell-based; conditions: Melanoma, 48 h
NCI-H460 = test: NCI-60 DTP Human Tumor Cell Line Screen; assay type: cell-based; conditions: NCI-H460, Non-Small Cell Lung Cancer, 48 h
SF-539 = test: NCI-60 DTP Human Tumor Cell Line Screen; assay type: cell-based; conditions: SF-539, CNS Cancer, 48 h
DU145 = test: NCI-60 DTP Human Tumor Cell Line Screen; assay type: cell-based; conditions: DU145, Prostate Cancer, 48 h
RPMI-8226 = test: NCI-60 DTP Human Tumor Cell Line Screen; assay type: cell-based; conditions: RPMI-8226, Leukemia, 48 h
IGROV1 = test: NCI-60 DTP Human Tumor Cell Line Screen; assay type: cell-based; conditions: IGROV1, Ovarian Cancer, 48 h
HCC-2998 = test: NCI-60 DTP Human Tumor Cell Line Screen; assay type: cell-based; conditions: HCC-2998, Colon Cancer, 48 h
MCF7 = test: NCI-60 DTP Human Tumor Cell Line Screen; assay type: cell-based; conditions: MCF7, Breast Cancer, 48 h
NCI-H322M = test: NCI-60 DTP Human Tumor Cell Line Screen; assay type: cell-based; conditions: Non-Small Cell Lung Cancer, 48 h
SNB-75 = test: NCI-60 DTP Human Tumor Cell Line Screen; assay type: cell-based; conditions: SNB-75, CNS Cancer, 48 h
NCI-H226 = test: NCI-60 DTP Human Tumor Cell Line Screen; assay type: cell-based; conditions: NCI-H226, Non-Small Cell Lung Cancer, 48 h
NCI-H23 = test: NCI-60 DTP Human Tumor Cell Line Screen; assay type: cell-based; conditions: NCI-H23, Non-Small Cell Lung Cancer, 48 h
CCRF-CEM = test: NCI-60 DTP Human Tumor Cell Line Screen; assay type: cell-based; conditions: Leukemia, 48 h
SR = test: NCI-60 DTP Human Tumor Cell Line Screen; assay type: cell-based; conditions: Leukemia, 48 h
NCI-H522 = test: NCI-60 DTP Human Tumor Cell Line Screen; assay type: cell-based; conditions: NCI-H522, Non-Small Cell Lung Cancer, 48 h
SK-MEL-28 = test: NCI-60 DTP Human Tumor Cell Line Screen; assay type: cell-based; conditions: SK-MEL-28, Melanoma, 48 h
A549/ATCC = test: NCI-60 DTP Human Tumor Cell Line Screen; assay type: cell-based; conditions: Non-Small Cell Lung Cancer, 48 h
[1] = tested on: PIP3 (prostate) cancer cell line; test: MTS cell proliferation assay, PIP3; assay type: cell-based
Experimental: Cell proliferation was determined using the CellTiter 96 Aqueous One Solution Cell Proliferation Assay MTS assay. A549 NSCLC cells were plated at 1.5×10^3 cells per well in flat bottom 96 well plates in 99 μL of media and allowed to adhere overnight. The drugs were serially diluted in 100% DMSO. For each drug treatment group, 1 μL of a 100× stock solution was added to each well for a final DMSO concentration of 1%. Cells were treated for 24, 48 or 72 hours. Cells were incubated with MTS dye (20 μL well^−1) for 40 min to 2 h. Absorbance at 490 nm was determined using a SpectraMax M2 (Molecular Devices) plate reader. The percent cell proliferation was calculated by converting the experimental absorbance to percentage of control, which was then plotted vs. drug concentration. The IC50 values were determined using a non-linear dose-response analysis in GraphPad Prism version 4.0. The IC50 is defined as the concentration of drug needed to cause a 50% decrease in proliferation compared to vehicle control.
The activity of Clodronate prodrug (14) was tested against other cell lines, include prostate (PIP3) and breast (MDA-MB-453) cancer cells lines. Cell proliferation was determined using the CellTiter 96 Aqueous One Solution Cell Proliferation Assay MTS assay as discussed above. Results are shown in FIG. 22 and in the table below.

## CN(CCCCCl)P(=O)(OCc1ccc([N+](=O)[O-])cc1)C(Cl)(Cl)P(=O)(OCc1ccc([N+](=O)[O-])cc1)N(C)CCCCCl (stereo not shown) [compound 14]
A549 NSCLC cells; 72 h treatment with 30, 100 and 300 μM, then 48 h drug-free
  new growth in fresh media without drug: No new growth was observed
A549 NSCLC cells; A549, 24 h, highest drug concentration tested
  cell viability reduced by: 57%
A549 NSCLC cells; A549, 48 h
  EC50 (trypan blue) fold higher than IC50 (MTS): ~1.6 fold
A549 NSCLC cells; higher doses over 24 h
  viability of A549 cells, of control: above 50%
A549 NSCLC cells; 48 h
  EC50: 19 ± 4 µM
A549 NSCLC cells; 72 h
  EC50: 16 ± 1 µM
HCT-15
  Log10GI50: −5.41
  Log10LC50: >−4.00
  Log10TGI: >−4.00
LOX IMVI
  Log10GI50: −5.75
  Log10LC50: −4.26
  Log10TGI: −5.33
NCI-H460
  Log10GI50: −5.42
  Log10LC50: >−4.00
  Log10TGI: >−4.00
SF-539
  Log10GI50: −5.44
  Log10LC50: >−4.00
  Log10TGI: >−4.00
DU145
  Log10GI50: −5.40
  Log10LC50: >−4.00
  Log10TGI: >−4.00
RPMI-8226
  Log10GI50: −5.57
  Log10LC50: >−4.00
  Log10TGI: >−4.00
IGROV1
  Log10GI50: −5.39
  Log10LC50: >−4.00
  Log10TGI: >−4.00
HCC-2998
  Log10GI50: −5.25
  Log10LC50: −4.46
  Log10TGI: >−4.00
MCF7
  Log10GI50: −5.47
  Log10LC50: >−4.00
  Log10TGI: −4.82
NCI-H322M
  Log10GI50: −5.34
  Log10LC50: >−4.00
  Log10TGI: >−4.00
SNB-75
  Log10GI50: −5.65
  Log10LC50: >−4.00
  Log10TGI: −5.17
NCI-H226
  Log10GI50: −5.52
  Log10LC50: >−4.00
  Log10TGI: >−4.00
NCI-H23
  Log10GI50: −5.58
  Log10LC50: >−4.00
  Log10TGI: >−4.00
CCRF-CEM
  Log10GI50: −5.50
  Log10LC50: >−4.00
  Log10TGI: >−4.00
SR
  Log10GI50: −5.43
  Log10LC50: >−4.00
  Log10TGI: >−4.00
NCI-H522
  Log10GI50: −5.66
  Log10LC50: >−4.00
  Log10TGI: −5.11
SK-MEL-28
  Log10GI50: −5.42
  Log10LC50: >−4.00
  Log10TGI: >−4.00
A549/ATCC
  Log10GI50: −5.37
  Log10LC50: >−4.00
  Log10TGI: >−4.00
[1]
  EC50: 3 µM

— patent US8772268B2, “Bisphosphonamidate prodrugs and uses thereof” (The Johns Hopkins University, priority 2010, dated 2014)
